Read-outs that look alike come from different tables or passages of the source.
Key:
[1] = test system: metastatic prostate cancer (PC-3) cells; assay: Live-cell imaging of PC-3 proliferation, BA or BOA; assay type: cell-based, human; conditions: 48-hour treatment
Experimental: (§1) One day prior to the treatment, the cells were counted and plated on 24-well plates (Falcon) and incubated overnight at +37° C. (5% CO2). The following day, the cells were treated betulinic acid (BA) or betulonic acid (BOA) in concentrations of 0, 10, 50, 70, 100, and 150 μM. 1% DMSO was used to control for the effects of the solvent. All samples were made in triplicates. The cells were imaged for 48 h with 2 h intervals (9 images per well) using IncuCyte S3 Live-Cell Analysis System (Essen BioScience).

[2] = test system: normal human dermal fibroblast (HDF) cells
Source text: Results are mean values from three independent experiments (±SEM).

[3] = Cytotoxicity assay of BA and BOA (Cell Counting Kit-8), PC-3; conditions: human, PC-3 metastatic prostate cancer cells
Experimental: (§2) Cells were seeded with 5000 cells/well on a 96-well plate (Falcon) in RPMI-1640 medium (PC-3 cells) or DMEM medium (WM-266-4 cells) supplemented with 10% fetal bovine serum, 2 mM L-glutamine, 100 U/ml penicillin, and 100 μg/ml streptomycin. The cells were incubating overnight in +37° C., 5% CO2 for the cells to adhere to the plate. The following day, cells were treated with BA or BOA (prepared from stock solutions using DMSO as solvent) in concentrations of 0-200 μM in complete medium in replicate samples and incubated for 48 h. The old medium was thereafter discarded and substituted with 100 μL 10% Cell Counting Kit-8 reagent (Dojindo Molecular Technologies) diluted in serum-free RPMI-1640 medium. The samples were incubated for an additional 1 h prior to analyzing cell viability by measuring the absorbance at 450 nm using a microplate reader (Hidex Sense) according to manufacturer's protocol. Non-treated cells were used as a negative control. 1% DMSO was used to control for effect of solvent. All samples contained 1% or less DMSO. The experiment was repeated at least three independent times for accurate cytotoxicity analysis. The IC50-value was calculated using GraphPad Prism 6 software.

[4] = test system: metastatic prostate cancer (PC-3) cells; assay: as above; conditions: read-out: IC50-value, cell viability, PC-3
Experimental: as §2

[5] = Cytotoxicity assay of BA and BOA (Cell Counting Kit-8), WM-266-4; conditions: human, WM-266-4 metastatic melanoma cells
Experimental: as §2

[6] = test system: metastatic melanoma (WM-266-4) cells; assay: as above; conditions: read-out: IC50-value, cell viability, WM-266-4
Experimental: as §2

[7] = test system: metastatic melanoma (WM-266-4) cells; assay: Live-cell imaging of WM-266-4 proliferation, BOA; assay type: cell-based, human; conditions: 48-hour treatment
Experimental: as §1

[8] = test system: metastatic prostate cancer (PC-3) cells; conditions: 100 µM
Experimental: as §2

[9] = test system: metastatic melanoma (WM-266-4) cells; conditions: 100 µM
Experimental: as §2

[10] = 48 h treatment, complete medium

| Compound | concentration giving maximum decrease of PC-3 proliferation [1] [µM] | effect on HDF cell proliferation [2] | viability at 48 h, 100 µM [3] [%] | IC50 ([4]; Homo sapiens, PC-3, 48 h) [µM] | viability at 48 h, 100 µM [5] [%] | IC50 ([6]; Homo sapiens, WM 266-4, 48 h) [µM] | concentration giving maximal decrease in WM-266-4 proliferation [7] [µM] | viability of PC-3 cells [8] | viability of WM-266-4 cells [9] | IC50 [4, 10] [µM] | IC50 [6, 10] [µM] |
| --- | --- | --- | --- | --- | --- | --- | --- | --- | --- | --- | --- |
| C=C(C)[C@@H]1CC[C@]2(C(=O)O)CC[C@]3(C)[C@H](CC[C@@H]4[C@@]5(C)CC[C@H](O)C(C)(C)[C@@H]5CC[C@]43C)[C@@H]12 [BA, betulinic acid] | 50 | neither BA or BOA had any significant effects on HDF cells | ~0 | 68 | ~0 | 64.7 | – | – | – | – | – |
| C=C(C)[C@@H]1CC[C@]2(C(=O)O)CC[C@]3(C)[C@H](CC[C@@H]4[C@@]5(C)CCC(=O)C(C)(C)[C@@H]5CC[C@]43C)[C@@H]12 [BOA, betulonic acid] | 50 | neither BA or BOA had any significant effects on HDF cells | – | – | – | – | 50 | below 20% | below 20% | 78.5 | 39.8 |

Source: US20210030673A1, “Method and a Compound for Preventing Mammalian Cancer Cell Proliferation and for Treating Cancer” (Oy Granula Ab Ltd., priority 2019, published 2021)
